Measured values from US20100197585A1, “USE OF A RGD-PEPTIDE AND/OR PARATHYROID HORMONE (1-34) AS ANTI-HIV AGENT” (priority 2007, published 2010).
Where no end group is shown, it is not given here.

Experiments:
HIV-1IIIB = assay: HIV-1 antiviral assay (cytopathic effect) in CEM-SS cells; conditions: for antiviral activity of positive control compounds (HIV-1): CEM-SS cells; for reduction of the cytopathic effect (CPE) in HIV-1 infected CEM-SS cells: 10 micrograms per ml, HIV-1IIIB, 6 days post-infection, MTS
[1] = test system: hepatitis B virus (HBV) ayw strain; assay: HBV experimental assay system (secreted HBV DNA, TaqMan PCR); type: cell-based; conditions: 10 micrograms per ml; HepG2-2.2.15; six days; HBV DNA by TaqMan PCR
Excerpt: HepG2-2.2.15 is a stable cell line containing the hepatitis B virus (HBV) ayw strain genome (ATCC Cat. No. CRL-11997). Antiviral compounds blocking any late step of viral replication such as transcription, translation, pregenome encapsidation, reverse transcription, particle assembly and release can be identified and characterized using this cell line. In this assay, an active compound will reduce the production of secreted HBV from cells, measured by utilizing real time quantitative PCR (TaqMan) assay to directly and accurately measure HBV DNA copies.
HepG2-2.2.15 cells were plated in 96-well microtiter plates. After 16-24 hours the confluent monolayer of HepG2-2.2.15 cells was washed and the medium was replaced with complete medium containing test peptides—10 micrograms per ml—in duplicate. […] Six days following the initial administration of the peptides, the cell culture supernatants was collected, treated with pronase and DNAse and then used in a real-time quantitative TaqMan PCR assay. The PCR-amplified HBV DNA was detected in real-time by monitoring increases in fluorescence signals that result from the exonucleolytic degradation of a quenched fluorescence probe molecule that hybridizes to the amplified HBV DNA. […] Antiviral activity was calculated from the reduction in HBV DNA levels (% virus control). […]

Human A549 cells = assay: Apoptosis prevention assay (C2 ceramide, Annexin-5); type: cell-based; conditions: 10 micrograms per ml, 30 min pretreatment
Streptococcus pneumoniae = Streptococcus pneumoniae assay; conditions: 10 micrograms per ml; 5x10^5 CFU/mL
HUVEC = assay: Endothelial tube formation assay; type: cell-based, human; conditions: 10 micrograms per ml, 20 hours
murine spleen cells = assay: Th1/Th2 cytokine profiling assay; type: cell-based, Balb/c mice; conditions: 10 micrograms per ml; Ovalbumin restimulation; 72 hours
HCMV strain AD169 = assay: HCMV plaque formation assay in MRC-5 cells; conditions: for inhibition of HCMV plaque formation as compared to the virus control: 10 micrograms per ml, 7-10 days
[2] = test system: Primary Human endothelial cells (HUVEC); assay: Endothelial cell migration assay; type: cell-based; conditions: 10 micrograms per ml, 22 hours

| Compound | antiviral activity of positive control compounds (HIV-1) (HIV-1IIIB) | inhibition of HBV replication as compared to the virus control infection [1] [%] | reduction of the ceramide-induced apoptosis on human lung cells (Human A549 cells) | inhibition of the growth of Streptococcus pneumoniae (Streptococcus pneumoniae) | inhibition of the tube formation of human endothelial cells (HUVEC) | change of the production of IL-5 in murine spleen cells (murine spleen cells) | decrease of the production of IFN-γ in murine spleen cells (murine spleen cells) | increase of the production of IL-2 in murine spleen cells (murine spleen cells) [%] | increase of the production of IL-4 in murine spleen cells (murine spleen cells) [%] | induction of the production of TNF-alpha in murine spleen cells (murine spleen cells) | inhibition of HCMV plaque formation as compared to the virus control (HCMV strain AD169) | inhibition of the migration of human endothelial cells [2] | reduction of the cytopathic effect (CPE) in HIV-1 infected CEM-SS cells (HIV-1IIIB) [%] | antiviral activity of positive control compound (HCMV) (HCMV strain AD169; positive control) |
| --- | --- | --- | --- | --- | --- | --- | --- | --- | --- | --- | --- | --- | --- | --- |
| CC(C)(C)NC(=O)[C@@H]1CN(Cc2cccnc2)CCN1C[C@@H](O)C[C@@H](Cc1ccccc1)C(=O)N[C@H]1c2ccccc2C[C@H]1O [indinavir, reference compound] | expected levels of antiviral activity |  |  |  |  |  |  |  |  |  |  |  |  |  |
| CC[C@H](C)[C@H](NC(=O)[C@H](CCC(=O)O)NC(=O)[C@H](CO)NC(=O)[C@@H](NC(=O)[C@@H](N)CO)C(C)C)C(=O)N[C@@H](CCC(N)=O)C(=O)N[C@@H](CC(C)C)C(=O)N[C@@H](CCSC)C(=O)N[C@@H](Cc1cnc[nH]1)C(=O)N[C@@H](CC(N)=O)C(=O)N[C@@H](CC(C)C)C(=O)NCC(=O)N[C@@H](CCCCN)C(=O)N[C@@H](Cc1cnc[nH]1)C(=O)N[C@@H](CC(C)C)C(=O)N[C@@H](CC(N)=O)C(=O)N[C@@H](CO)C(=O)N[C@@H](CCSC)C(=O)N[C@@H](CCC(=O)O)C(=O)N[C@@H](CCCN=C(N)N)C(=O)N[C@H](C(=O)N[C@@H](CCC(=O)O)C(=O)N[C@@H](Cc1c[nH]c2ccccc12)C(=O)N[C@@H](CC(C)C)C(=O)N[C@@H](CCCN=C(N)N)C(=O)N[C@@H](CCCCN)C(=O)N[C@@H](CCCCN)C(=O)N[C@@H](CC(C)C)C(=O)N[C@@H](CCC(N)=O)C(=O)N[C@@H](CC(=O)O)C(=O)N[C@H](C(=O)N[C@@H](Cc1cnc[nH]1)C(=O)N[C@@H](CC(N)=O)C(=O)N[C@@H](Cc1ccccc1)C(=O)O)C(C)C)C(C)C [Peptide 2] |  | 0 | 23.9% | no effect | 28% | did not significantly change | 31.4% | 80.4 | 35.2 | did not significantly change | did not inhibit | no effect | 18.1 |  |
| Cc1cn([C@H]2C[C@H](N=[N+]=[N-])[C@@H](CO)O2)c(=O)[nH]c1=O [AZT, zidovudine, reference compound] | expected levels of antiviral activity |  |  |  |  |  |  |  |  |  |  |  |  |  |
| Nc1nc(O)c2ncn(COC(CO)CO)c2n1 [Ganciclovir, reference compound] |  |  |  |  |  |  |  |  |  |  |  |  |  | expected levels of antiviral activity |
| Gly-Arg-Gly-Asp-Asn-Pro-OH (GRGDNP-OH) [Peptide 1] |  | 36.4 | did not reduce | 100% | no effect | did not significantly change | did not significantly change | 58.8 | 55.6 | 23.7% | did not inhibit |  | 100 |  |
